Reference: ChEMBL document CHEMBL4627294, “Synthesis and efficacy of pyrvinium-inspired analogs against tuberculosis and malaria pathogens” (Bioorg Med Chem Lett, 2020)
≈ marks a conversion by molar mass, not a printed value. Calls of active or inactive are those of the source. The rule behind the calls is not given here.

Legend:
[1] = tested on: Plasmodium falciparum; assay: Antimalarial activity against erythrocytic stage of Plasmodium falciparum 3D7 incubated for 50 hrs; assay type: functional, organism-based; conditions: 3D7, 50 h
[2] = tested on: Mycobacterium tuberculosis; assay: Antimycobacterial activity against Mycobacterium tuberculosis H37Rv assessed as inhibition of bacterial growth by MABA assay; assay type: functional
[3] = Selectivity index, ratio of IC50 for CHOK1 cells to MIC for Mycobacterium tuberculosis H37Rv; assay type: toxicity; conditions: hamster, CHO-K1 cells
[4] = tested on: CHO-K1; assay: Cytotoxicity against CHOK1 cells; assay type: cell-based; conditions: Cricetulus griseus
[5] = Cytotoxicity against human HEK cells; assay type: cell-based; conditions: HEK293
[6] = tested on: NRK-49F; assay: Cytotoxicity against rat NRK-49F cells; assay type: cell-based
[7] = Selectivity index, ratio of IC50 for CHOK1 cells to IC50 for Plasmodium falciparum 3D7; assay type: toxicity; conditions: hamster, CHO-K1 cells; read-out: Ratio IC50
[8] = tested on: Plasmodium falciparum; assay: Antimalarial activity against drug-resistant Plasmodium falciparum Dd2; assay type: functional, organism-based
[9] = tested on: Plasmodium falciparum; assay: Antimalarial activity against Plasmodium falciparum 3D7 assessed as inhibition of parasite growth incubated for 96 hrs; assay type: functional, organism-based; conditions: 3D7, 96 h
[10] = tested on: Plasmodium falciparum; assay: Antimalarial activity against early ring stage of Plasmodium falciparum 3D7 assessed as parasite growth arrest at early trophozite stage at 3 times of IC50 incubated for 48 hrs by giemsa staining based light microscopy; assay type: functional, organism-based
[11] = tested on: Plasmodium falciparum; assay: Parasiticidal activity against early ring stage of Plasmodium falciparum 3D7 assessed as reduction in parasite growth incubated for 48 hrs followed by compound washed off and measured after 48 hrs incubation in normal medium; assay type: functional, organism-based

SMILES | IC50 [1] | MIC [2] | selectivity ratio [3] | IC50 [4] | IC50 [5] | IC50 [6] | selectivity ratio [7] | IC50 [8] | IC50 [9] | Activity [10] | Activity [11]
CCc1nc(N)nc(N)c1-c1ccc(Cl)cc1 [PYRIMETHAMINE] | 0.011 µM |  |  |  |  |  |  |  |  |  | 
CO[C@H]1/C=C/O[C@@]2(C)Oc3c(C)c(O)c4c(O)c(c(/C=N/N5CCN(C)CC5)c(O)c4c3C2=O)NC(=O)/C(C)=C\C=C\[C@H](C)[C@H](O)[C@@H](C)[C@@H](O)[C@@H](C)[C@H](OC(C)=O)[C@@H]1C [RIFAMPIN] |  | 0.24 µM (≈ 0.198 µg/mL) |  |  |  |  |  |  |  |  | 
Cc1cc(/C=C/c2ccc3cc(N(C)C)ccc3[n+]2C)c(C)n1-c1ccccc1 | 0.774 µM | 6.25 µM | 1.73 | 10.9 µM | 16 µM | 20.2 µM | 14 |  |  |  | 
CN(C)c1ccc2c(ccc(/C=C/c3c[nH]c4ccccc34)[n+]2C)c1 | 0.06 µM | 3.12 µM | 3.64 | 11.4 µM | 10.6 µM | 11.3 µM | 188 | 0.097 µM |  |  | 
CN(C)c1ccc2c(ccc(/C=C/c3c(Cl)cccc3Cl)[n+]2C)c1 | 0.023 µM | 3.12 µM | 2.53 | 7.92 µM | 5.62 µM | 5.23 µM | 344 | 0.053 µM | 0.00237 µM | Active | Active
CN(C)c1ccc2c(ccc(/C=C/c3ccccc3)[n+]2C)c1 | 0.089 µM | > 100 µM | < 0.41 | 41.6 µM | 39.8 µM | 42.1 µM | 467 |  |  |  | 
Cc1cc(/C=C/c2ccc3cc(N(C)C)ccc3[n+]2C)c(C)n1-c1ccccn1 | 0.228 µM | 6.25 µM | 2.42 | 15.2 µM | 14.6 µM | 12.7 µM | 66.2 |  |  |  | 
CN(C)c1ccc2c(ccc(/C=C/c3ccc(C#N)cc3)[n+]2C)c1 | 0.094 µM | 50 µM | 1.05 | 52.6 µM | 62.1 µM | 50.2 µM | 553 |  |  |  | 
CN(C)c1ccc2c(ccc(/C=C/c3ccc(Cl)c(Cl)c3)[n+]2C)c1 | 0.087 µM | 3.12 µM | 3.98 | 12.4 µM | 8.56 µM | 11.3 µM | 142 |  |  |  | 
C[C@@H]1CC[C@H]2[C@@H](C)C(=O)O[C@@H]3O[C@@]4(C)CC[C@@H]1[C@]32OO4 [ARTEMISININ] | 0.025 µM |  |  |  |  |  |  | 0.021 µM |  |  | 
CN(C)c1ccc2c(ccc(/C=C/c3cccc(C#N)c3)[n+]2C)c1 | 0.217 µM | 25 µM | 3.5 | 87.6 µM | 56 µM | 59.5 µM | 404 |  |  |  | 
CN(C)c1ccc2c(ccc(/C=C/c3cc(Cl)cc(Cl)c3O)[n+]2C)c1 | 2.47 µM | 25 µM | 2.18 | 54.7 µM | 50.1 µM | 49.1 µM | 22.1 |  |  |  | 
CN(C)c1ccc2c(ccc(/C=C/c3ccccc3[N+](=O)[O-])[n+]2C)c1 | 3.6 µM | 50 µM | 1.47 | 73.9 µM | 66.7 µM | 69.5 µM | 20.5 |  |  |  | 
CN(C)c1ccc2c(ccc(/C=C/c3cc(Cl)ccc3O)[n+]2C)c1 | 0.441 µM | 3.12 µM | 9.72 | 30.3 µM | 15.3 µM | 12 µM | 68.7 |  |  |  | 
CN(C)c1ccc2c(ccc(/C=C/c3ccc[nH]3)[n+]2C)c1 | 1.54 µM | 25 µM | 3.11 | 77.8 µM | 66.9 µM | 76 µM | 50.5 |  |  |  | 
